Data set [1] can be described thus: Solubility of the compound of formula (II). Format: physicochemical.
Data set [2] can be described thus: Stability of the compound of formula (II) in hydrophilic environment. It counts as physicochemical.

As for `CC[C@H](C)[C@@H]1NC(=O)[C@H](Cc2ccc(O)cc2)N(C)C(=O)[C@H]([C@@H](C)CC)N2C(=O)[C@H](CC[C@H]2O)NC(=O)[C@H](CC(C)C)NC(=O)[C@@H](NC(=O)[C@H](CCC(N)=O)NC(=O)C(C)C)[C@@H](C)OC1=O` [compound of formula (II)], in data set [1] (lipophilic excipients), the “solubility in lipophilic excipients” value is recorded as “low solubility”. In data set [1] (polar organic solvents), the “solubility in polar organic solvents” value is on record as “good solubility”. Besides, the “solubility in water and aqueous buffers” value in data set [1] (water and aqueous buffers) is recorded as “moderate solubility”. For the same molecule, the “stability in the presence of water” value in data set [2] (presence of water) was “subject to hydrolysis”. The “stability in a hydrophilic environment” value in data set [2] (water and polar organic solvents/co-solvents) is reported as “tendency to degradeation”.
